Results taken from ChEMBL document CHEMBL1130041, “Halogenated 4-(phenoxymethyl)piperidines as potential radiolabeled probes for sigma-1 receptors: in vivo evaluation of [123I]-1-(iodopropen-2-yl)-4-[(4-cyanophenoxy)methyl]pip eri dine” (J Med Chem, 1997).
pKi: −log10 of the molar value.

Key:
Rattus norvegicus [1] = species on record: Rattus norvegicus; assay: Distribution of [123I]-label in rat brain (hippocampus) was reported at 20 min post injection. Value shown is %ID/g of tissue; assay type: ADME, organism-based; settings: in vivo
Rattus norvegicus [2] = species on record: Rattus norvegicus; assay: Biodistribution of [123I]-label in rat intestine was reported at 2 hr post injection. Value shown is %ID/g of tissue; assay type: ADME, organism-based; settings: in vivo
Rattus norvegicus [3] = species on record: Rattus norvegicus; assay: Biodistribution of [123I]-label in rat liver was reported at 4 hr post injection. Value shown is %ID/g of tissue; assay type: ADME, organism-based; settings: in vivo
Rattus norvegicus [4] = species on record: Rattus norvegicus; assay: Biodistribution of [123I]-label in rat thyroid was reported at 4 hr post injection. Value shown is %ID/organ; assay type: ADME, organism-based, Thyroid gland; settings: in vivo
Rattus norvegicus [5] = species on record: Rattus norvegicus; assay: Distribution of [123I]-label in rat brain (diencephalon) was reported at 20 min post injection. Value shown is %ID/g of tissue; assay type: ADME, organism-based; settings: in vivo
Rattus norvegicus [6] = species on record: Rattus norvegicus; assay: Biodistribution of [123I]-label in rat liver was reported at 2 hr post injection. Value shown is %ID/g of tissue; assay type: ADME, organism-based; settings: in vivo
Rattus norvegicus [7] = species on record: Rattus norvegicus; assay: Biodistribution of [123I]-label in rat spleen was reported at 2 hr post injection. Value shown is %ID/g of tissue; assay type: ADME, organism-based; settings: in vivo
Rattus norvegicus [8] = species on record: Rattus norvegicus; assay: Distribution of [123I]-label in rat brain (hippocampus) was reported at 60 min post injection. Value shown is %ID/g of tissue; assay type: ADME, organism-based; settings: in vivo, 1 h
Rattus norvegicus [9] = species on record: Rattus norvegicus; assay: Distribution of [123I]-label in rat brain (frontal cortex) was reported at 20 min post injection. Value shown is %ID/g of tissue; assay type: ADME, organism-based; settings: in vivo
Rattus norvegicus [10] = species on record: Rattus norvegicus; assay: Biodistribution of [123I]-label in rat liver was reported at 1 hr post injection. Value shown is %ID/g of tissue; assay type: ADME, organism-based; settings: in vivo
Rattus norvegicus [11] = species on record: Rattus norvegicus; assay: Biodistribution of [123I]-label in rat muscle was reported at 24 hr post injection. Value shown is %ID/g of tissue; assay type: ADME, organism-based; settings: in vivo
Rattus norvegicus [12] = species on record: Rattus norvegicus; assay: Biodistribution of [123I]-label in rat heart was reported at 24 hr post injection. Value shown is %ID/g of tissue; assay type: ADME, organism-based; settings: in vivo
Rattus norvegicus [13] = species on record: Rattus norvegicus; assay: Distribution of [123I]-label in rat brain (diencephalon) was reported at 60 min post injection. Value shown is %ID/g of tissue; assay type: ADME, organism-based; settings: in vivo, 1 h
Rattus norvegicus [14] = species on record: Rattus norvegicus; assay: Biodistribution of [123I]-label in rat kidneys was reported at 4 hr post injection. Value shown is %ID/g of tissue; assay type: ADME, organism-based, Kidney; settings: in vivo
Rattus norvegicus [15] = species on record: Rattus norvegicus; assay: Biodistribution of [123I]-label in rat stomach was reported at 4 hr post injection. Value shown is %ID/g of tissue; assay type: ADME, organism-based; settings: in vivo
[16] = Partition coefficient (logP); assay type: physicochemical; settings: octanol/water
Rattus norvegicus [17] = species on record: Rattus norvegicus; assay: Biodistribution of [123I]-label in rat blood was reported at 0.33 hr post injection. Value shown is %ID/g of tissue; assay type: ADME, organism-based; settings: in vivo
Sigma 2 receptor = assay: Receptor binding affinity against Sigma-2 receptor from guinea pig membranes; parameters: species or system Cavia porcellus
Rattus norvegicus [18] = species on record: Rattus norvegicus; assay: Biodistribution of [123I]-label in rat intestine was reported at 4 hr post injection. Value shown is %ID/g of tissue; assay type: ADME, organism-based; settings: in vivo
Rattus norvegicus [19] = species on record: Rattus norvegicus; assay: Biodistribution of [123I]-label in rat brain was reported at 0.33 hr post injection. Value shown is %ID/g of tissue; assay type: ADME, organism-based; settings: in vivo
Rattus norvegicus [20] = species on record: Rattus norvegicus; assay: Biodistribution of [123I]-label in rat liver was reported at 0.33 hr post injection. Value shown is %ID/g of tissue; assay type: ADME, organism-based; settings: in vivo
Rattus norvegicus [21] = species on record: Rattus norvegicus; assay: Biodistribution of [123I]-label in rat intestine was reported at 24 hr post injection. Value shown is %ID/g of tissue; assay type: ADME, organism-based; settings: in vivo
Rattus norvegicus [22] = species on record: Rattus norvegicus; assay: Biodistribution of [123I]-label in rat brain was reported at 2 hr post injection. Value shown is %ID/g of tissue; assay type: ADME, organism-based; settings: in vivo
Rattus norvegicus [23] = species on record: Rattus norvegicus; assay: Biodistribution of [123I]-label in rat stomach was reported at 2 hr post injection. Value shown is %ID/g of tissue; assay type: ADME, organism-based; settings: in vivo
Rattus norvegicus [24] = species on record: Rattus norvegicus; assay: Biodistribution of [123I]-label in rat lung was reported at 24 hr post injection. Value shown is %ID/g of tissue; assay type: ADME, organism-based; settings: in vivo
Rattus norvegicus [25] = species on record: Rattus norvegicus; assay: Biodistribution of [123I]-label in rat heart was reported at 4 hr post injection. Value shown is %ID/g of tissue; assay type: ADME, organism-based; settings: in vivo
Rattus norvegicus [26] = species on record: Rattus norvegicus; assay: Distribution of [123I]-label in rat brain (posterior cortex) was reported at 20 min post injection. Value shown is %ID/g of tissue; assay type: ADME, organism-based; settings: in vivo
Rattus norvegicus [27] = species on record: Rattus norvegicus; assay: Biodistribution of [123I]-label in rat kidneys was reported at 2 hr post injection. Value shown is %ID/g of tissue; assay type: ADME, organism-based, Kidney; settings: in vivo
Rattus norvegicus [28] = species on record: Rattus norvegicus; assay: Biodistribution of [123I]-label in rat spleen was reported at 0.33 hr post injection. Value shown is %ID/g of tissue; assay type: ADME, organism-based; settings: in vivo
Rattus norvegicus [29] = species on record: Rattus norvegicus; assay: Biodistribution of [123I]-label in rat brain was reported at 4 hr post injection. Value shown is %ID/g of tissue; assay type: ADME, organism-based; settings: in vivo
Rattus norvegicus [30] = species on record: Rattus norvegicus; assay: Biodistribution of [123I]-label in rat thyroid was reported at 0.33 hr post injection. Value shown is %ID/organ; assay type: ADME, organism-based, Thyroid gland; settings: in vivo
Rattus norvegicus [31] = species on record: Rattus norvegicus; assay: Biodistribution of [123I]-label in rat brain was reported at 2 hr post injection. Value shown is %ID/organ; assay type: ADME, organism-based; settings: in vivo
Rattus norvegicus [32] = species on record: Rattus norvegicus; assay: Biodistribution of [123I]-label in rat blood was reported at 4 hr post injection. Value shown is %ID/g of tissue; assay type: ADME, organism-based; settings: in vivo
Rattus norvegicus [33] = species on record: Rattus norvegicus; assay: Distribution of [123I]-label in rat brain (medulla pons) was reported at 20 min post injection. Value shown is %ID/g of tissue; assay type: ADME, organism-based; settings: in vivo
Rattus norvegicus [34] = species on record: Rattus norvegicus; assay: Biodistribution of [123I]-label in rat blood was reported at 2 hr post injection. Value shown is %ID/g of tissue; assay type: ADME, organism-based; settings: in vivo

Which results are given for `N#Cc1ccc(OCC2CCN(C/C=C/I)CC2)cc1`?
ID/g (Rattus norvegicus [1]): 1.02%; ID/g (Rattus norvegicus [2]): 0.84%; ID/g (Rattus norvegicus [3]): 0.5%; ID (Rattus norvegicus [4]): 0.34%; ID/g (Rattus norvegicus [5]): 1.03%; ID/g (Rattus norvegicus [6]): 0.43%; ID/g (Rattus norvegicus [7]): 0.89%; ID/g (Rattus norvegicus [8]): 1.06%; ID/g (Rattus norvegicus [9]): 1.28%; ID/g (Rattus norvegicus [10]): 0.45%; ID/g (Rattus norvegicus [11]): 0.09%; ID/g (Rattus norvegicus [12]): 0.18%; ID/g (Rattus norvegicus [13]): 1.18%; ID/g (Rattus norvegicus [14]): 1.31%; ID/g (Rattus norvegicus [15]): 0.27%; logP [16]: 3.36; ID/g (Rattus norvegicus [17]): 0.05%; pKi (Sigma 2 receptor): 7.41; ID/g (Rattus norvegicus [18]): 0.81%; ID/g (Rattus norvegicus [19]): 1.06%; ID/g (Rattus norvegicus [20]): 0.33%; ID/g (Rattus norvegicus [21]): 0.74%; ID/g (Rattus norvegicus [22]): 0.91%; ID/g (Rattus norvegicus [23]): 0.3%; ID/g (Rattus norvegicus [24]): 0.79%; ID/g (Rattus norvegicus [25]): 0.67%; ID/g (Rattus norvegicus [26]): 1.43%; ID/g (Rattus norvegicus [27]): 1.3%; ID/g (Rattus norvegicus [28]): 0.91%; ID/g (Rattus norvegicus [29]): 1.07%; ID (Rattus norvegicus [30]): 0.09%; ID (Rattus norvegicus [31]): 2.01%; ID/g (Rattus norvegicus [32]): 0.02%; ID/g (Rattus norvegicus [33]): 0.95%; ID/g (Rattus norvegicus [34]): 0.03%
